In patent US20090111823A1, “AMINOPYRIDINE DERIVATIVES AS MODULATORS OF MGLUR5” (AstraZeneca AB, priority 2007, published 2009):

Assays:
[1] = biological target: T1, human mGluR5d (Homo sapiens, UniProt P41594); test: FLIPR assay, mobilization of intracellular calcium in cells expressing human mGluR5d; type: cell-based; settings: antagonism, read-out: FLIPR hmGluR5d
T1 construct: expressed in transfected cells; The separate IP3 assay uses GHEK cells stably expressing human mGluR5d
Excerpt: Functional Assessment of mGluR5 Antagonism in Cell Lines Expressing mGluR 5D
The properties of the compounds of the invention can be analyzed using standard assays for pharmacological activity. Examples of glutamate receptor assays are well known in the art as described in for example Aramori et al, Neuron 8:757 (1992), Tanabe et al., Neuron 8:169 (1992), Miller et al., J. Neuroscience 15: 6103 (1995), Balazs, et al., J. Neurochemistry 69:151 (1997). The methodology described in these publications is incorporated herein by reference. Conveniently, the compounds of the invention can be studied by means of an assay (FLIPR) that measures the mobilization of intracellular calcium, [Ca^2+]i in cells expressing mGluR5 or another assay (IP3) that measures inositol phosphate turnover.
Cells expressing human mGluR5d as described in WO97/05252 cultured in a mixture of high glucose DMEM with Glutamax (31966-021)(500 mL), 10% dialyzed fetal bovine serum (Hyclone #SH30079.03)(56 mL), 200 μg/mL Hygromycin B (Invitrogen 45-0430, 50 mg/mL)(2.2 mL), 200 μg/mL Zeocin (invitrogen #R250-01; 100 mg/mL)(1.1 mL) are seeded at a density of 100,000 cells per well on collagen coated clear bottom 96-well plates with black sides and cells were allowed to adhere over night before experiments. All assays are done in a buffer containing 146 mM NaCl, 5 mM KCl, 1 mM MgCl2, 1 mM CaCl2, 20 mM HEPES, 1 mg/mL glucose and 1 mg/mL BSA Fraction IV (pH 7.4). Cell cultures in the 96-well plates are loaded for 60 minutes in the above mentioned buffer containing 6 μM of the acetoxymethyl ester form of the fluorescent calcium indicator fluo-3 (Molecular Probes, Eugene, Oreg.) in 0.025% pluronic acid (a proprietary, non-ionic surfactant polyol—CAS Number 9003-11-6). […] The fluorescence signal is sampled 50 times at 1-second intervals followed by 3 samples at 5-second intervals immediately after each of the two additions. Responses are measured as the difference between the peak heights of the response to agonist, less the background fluorescence within the sample period. […]

[2] = Determination of brain to plasma ratio in rat; type: in vivo; settings: female Sprague Dawley rats, read-out: Brain/Plasma Ratio of compound in Rat
Protocol: Brain to plasma ratios are estimated in female Sprague Dawley rats. The compound is dissolved in water or another appropriate vehicle. For determination of brain to plasma ratio the compound is administrated as a subcutaneous, or an intravenous bolus injection, or an intravenous infusion, or an oral administration. At a predetermined time point after the administration a blood sample is taken with cardiac puncture. The rat is terminated by cutting the heart open, and the brain is immediately retained. The blood samples are collected in heparinized tubes and centrifuged within 30 minutes, in order to separate the plasma from the blood cells. The plasma is transferred to 96-well plates and stored at −20° C. until analysis. The brains are divided in half, and each half is placed in a pre-tarred tube and stored at −20° C. until analysis. Prior to the analysis, the brain samples are thawed and 3 mL/g brain tissue of distilled water is added to the tubes. The brain samples are sonicated in an ice bath until the samples are homogenized. Both brain and plasma samples are precipitated with acetonitrile. After centrifugation, the supernatant is diluted with 0.2% formic acid. Analysis is performed on a short reversed-phase HPLC column with rapid gradient elution and MSMS detection using a triple quadrupole instrument with electrospray ionisation and Selected Reaction Monitoring (SRM) acquisition. Liquid-liquid extraction may be used as an alternative sample clean-tip. The samples are extracted, by shaking, to an organic solvent after addition of a suitable buffer. An aliquot of the organic layer is transferred to a new vial and evaporated to dryness under a stream of nitrogen. After reconstitution of the residuals the samples are ready for injection onto the HPLC column.

T1 sequence (P41594 21-942 isoform P41594-3 limits assumed): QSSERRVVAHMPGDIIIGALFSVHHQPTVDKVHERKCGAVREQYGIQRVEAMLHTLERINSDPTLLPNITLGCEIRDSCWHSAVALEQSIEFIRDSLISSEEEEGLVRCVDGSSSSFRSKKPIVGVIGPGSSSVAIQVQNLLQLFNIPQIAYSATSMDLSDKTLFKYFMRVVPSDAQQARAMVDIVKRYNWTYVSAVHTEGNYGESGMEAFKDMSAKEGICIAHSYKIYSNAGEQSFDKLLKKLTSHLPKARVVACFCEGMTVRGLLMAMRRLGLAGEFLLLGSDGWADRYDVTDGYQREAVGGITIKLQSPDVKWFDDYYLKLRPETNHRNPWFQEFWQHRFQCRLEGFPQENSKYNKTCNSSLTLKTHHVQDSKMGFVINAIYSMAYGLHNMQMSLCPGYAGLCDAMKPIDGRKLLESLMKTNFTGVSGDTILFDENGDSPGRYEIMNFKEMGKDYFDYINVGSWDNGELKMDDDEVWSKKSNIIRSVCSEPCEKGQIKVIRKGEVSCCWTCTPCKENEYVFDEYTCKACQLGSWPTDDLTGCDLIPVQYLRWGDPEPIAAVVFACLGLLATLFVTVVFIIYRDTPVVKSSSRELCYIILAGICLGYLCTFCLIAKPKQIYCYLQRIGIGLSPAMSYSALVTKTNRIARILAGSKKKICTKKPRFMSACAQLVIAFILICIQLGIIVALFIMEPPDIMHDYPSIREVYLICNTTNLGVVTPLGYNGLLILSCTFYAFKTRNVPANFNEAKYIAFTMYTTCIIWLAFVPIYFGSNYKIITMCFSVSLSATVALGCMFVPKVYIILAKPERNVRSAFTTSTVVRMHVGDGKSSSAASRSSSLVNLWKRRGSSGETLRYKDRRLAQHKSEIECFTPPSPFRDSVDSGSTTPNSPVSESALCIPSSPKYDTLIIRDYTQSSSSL

IC50 [1] [nM]	Kp [2]	SMILES
34	< 0.01	Cn1c(-c2ccc(N)nc2)nnc1N1CCCC1c1cc(-c2ccccc2)on1 (stereo in doubt) [Example 5.3, 5-{4-Methyl-5-[(2R)-2-(5-phenylisoxazole-3-yl)pyrrolidin-1-yl]-4H-1,2,4-triazol-3-yl}pyridin-2-amine]
39	0.285	CN(C)c1ccc(-c2nnc(N3CCC[C@@H]3c3cc(-c4cccc(Cl)c4)on3)n2C)cn1 [Example 5.1, 5-(5-{(2R)-2-[5-(3-Chlorophenyl)isoxazol-3-yl]pyrrolidin-1-yl}-4-methyl-4H-1,2,4-triazol-3-yl)-N,N-dimethylpyridin-2-amine]
< 3	0.085	Cn1c(-c2ccc(N)nc2)nnc1N1CCC[C@@H]1c1cc(-c2cccc(Cl)c2)on1 [Example 5.2, 5-(5-{(2R)-2-[5-(3-Chlorophenyl)isoxazol-3-yl]pyrrolidin-1-yl}-4-methyl-4H-1,2,4-triazol-3-yl)pyridin-2-amine]
